“And” between values parts separate entries of the source, which are not always exact repeats. Identical values can stand only once.
Columns and labels:
RIPK2 [1] = target: T1, RIPK2 (Homo sapiens, UniProt O43353); assay: RIPK2 degradation in THP-1 cells, capillary-based immunoassay, 18 h; type: cell-based; parameters: endogenous in cells; host or cells: THP-1 (ATCC TIB-202); settings: for RIPK2 level relative to DMSO control, mean / RIPK2 level relative to DMSO control, replicate: THP-1, 18 h; for pDC50 (log half-maximal degradation concentration) of RIPK2: THP-1 cells, 18 h, n = 3
Experimental: The compounds were incubated with THP-1 cells for 18 h after which RIPK2 levels were determined using a capillary-based immunoassay (n = 3). All three PROTACs potently degraded RIPK2 in a concentration dependent manner (Fig. 1). […]. This discrepancy between the in vitro RIPK2 degradation and binding potency provides possible evidence for a catalytic mechanism of action of this compound.
(§1) Before treatment with compound or vehicle, THP1 cells, human and rat PBMCs were counted using Vi-Cell cell counter (Invitrogen) and adjusted to a final cell density of […] using complete growth medium. Cells or whole blood were treated with vehicle (0.1% DMSO) or fixed concentrations of compound up to 1 μM in half log unit increments and incubated for the time period indicated in the figure.
(§2) Simple Western immunoassay: Cell lysates were mixed with 5× concentrated master mix (Protein Simple) and denatured at 95 °C on a heat block for 5 min together with the provided ladder (Protein Simple). Antibodies were diluted in the provided buffer as following: anti-RIPK2 (1:10 or 1:50), anti-cIAP1(1:10), anti-cIAP2 (1:10), anti-XIAP (1:10), mouse anti-β-actin (Abcam - 1:1000), rabbit anti-β-actin (Abcam - 1:50) and anti-vinculin (1:100). All reagents (blocking buffer, primary and secondary antibodies, streptavadin, luminol/peroxide, separation matrix, stacking matrix and water) were added to the Protein Simple plate containing the ladder and lysates and the plate was placed in a Protein Simple Western instrument and the Simple Western default size assay protocol was used. All samples were analyzed using the associated Compass software 3.1.7. The area under the peak values obtained for RIPK2, cIAP1, cIAP2 or XIAP were normalized relative to the control protein values.
(§3) In vitro experimental data were analyzed using a 4-parameter logistic equation in GraphPad Prism 5.0.4. to generate an estimate of the half-maximal concentration and maximal degradation, DC50 and Dmax value respectively, for concentration-degradation relationships. Cytokine levels were analyzed in a similar manner to yield IC50 and Imax values. […] Where analysis to a sigmoidal relationship was not possible, the data points are shown as mean ± s.e.m.

[2] = test system: spontaneous IL-1β, IL-6, and TNFα release; assay: Spontaneous cytokine release (IL-1β, IL-6, TNFα) from Crohn's disease patient intestinal biopsies; type: cell-based, human; settings: prednisolone 1uM; individual biopsies; fig 4e
Experimental: (§4) Colonic biopsies or tissues were obtained during endoscopy or via surgical resection from Crohn’s Disease (CD) or Ulcerative Colitis (UC) patients (St Bartholomew’s Hospital, London). All patients gave informed written consent. For surgical specimens, the mucosa was dissected away from the submucosa and cut into pieces of ~10–20 mg. […] The supernatants were collected for cytokine measurement as detailed in cytokines assay section while tissues were used to determine RIPK2 levels.
(§5) Cytokine measurement assay: Cytokine levels were measured in rat plasma or rat PBMCs cell culture supernatants using rat V-Plex TNFα, in human plasma or human PBMCs cell culture supernatants with either TNFα tissue culture or 7-plex kit. Rat serum and tissues samples from the in vivo L18-MDP acute inflammation model were analyzed using the rat TNFα, Il-6 and IL-8 U-Plex kits. All kits provided by Meso Scale Discovery (MSD). Levels of cytokines spontaneously released from human colon biopsies cell culture supernatants were measured using Human IL-1 beta/IL-1F2 DuoSet ELISA (Bio-techne), Human IL-6 ELISA (Immunotools) and Human TNF-alpha DuoSet ELISA (Bio-techne). All samples were processed accordingly to the manufacturer’s instructions. The MSD plates were analyzed using the MSD sector imager 6000 plate reader and cytokines concentration (pg/ml) was obtained by using the MSD DISCOVERY WORKBENCH software version 4.0.12.1

[3] = test system: spontaneous IL-1β, IL-6, and TNFα release; assay: Spontaneous cytokine release (IL-1β, IL-6, TNFα) from ulcerative colitis patient intestinal biopsies; type: cell-based, human; settings: prednisolone 1uM; individual biopsies; fig 4f
Experimental: as §4, §5

RIPK2 [4] = target: T1, RIPK2; assay: RIPK2 degradation in human PBMCs (immunoassay); type: cell-based; parameters: endogenous in cells; host or cells: primary human PBMCs from leukodepletion filters (NHSBT)
Experimental: (§6) PBMCs were isolated from leukodepletion filter from platelet aphaeresis supplied by National Health System Blood and Transplant—NHSBT Apheresed at NHBST.
as §1
(§7) Where the assessment of cytokines was performed, L18-MDP was added to the cell culture media (1 μg/ml) or to the rat blood samples (100 ng/ml) and samples were incubated for up to 4 h. […] Samples were them spun down at 1000 g and the cell culture supernatant, plasma or serum were collected for cytokines assessment, while cell pellets were used for RIPK2 and/or cIAP1, cIAP2, and XIAP levels analysis via immunoblotting.
as §2, with “All samples were analyzed using the associated Compass software 3.1.7.” left out
as §3

[5] = test system: L18-MDP-induced TNFα release; assay: L18-MDP-induced cytokine release (TNFα, IL1β, IL-6, IL-8, IL-10) in human PBMCs; type: cell-based; settings: human PBMCs
Experimental: as §6, §1, §7, §5, §3

RIPK2 [6] = target: T1, RIPK2; assay: RIPK2 fluorescence polarisation binding assay

T1 sequence (O43353 whole entry): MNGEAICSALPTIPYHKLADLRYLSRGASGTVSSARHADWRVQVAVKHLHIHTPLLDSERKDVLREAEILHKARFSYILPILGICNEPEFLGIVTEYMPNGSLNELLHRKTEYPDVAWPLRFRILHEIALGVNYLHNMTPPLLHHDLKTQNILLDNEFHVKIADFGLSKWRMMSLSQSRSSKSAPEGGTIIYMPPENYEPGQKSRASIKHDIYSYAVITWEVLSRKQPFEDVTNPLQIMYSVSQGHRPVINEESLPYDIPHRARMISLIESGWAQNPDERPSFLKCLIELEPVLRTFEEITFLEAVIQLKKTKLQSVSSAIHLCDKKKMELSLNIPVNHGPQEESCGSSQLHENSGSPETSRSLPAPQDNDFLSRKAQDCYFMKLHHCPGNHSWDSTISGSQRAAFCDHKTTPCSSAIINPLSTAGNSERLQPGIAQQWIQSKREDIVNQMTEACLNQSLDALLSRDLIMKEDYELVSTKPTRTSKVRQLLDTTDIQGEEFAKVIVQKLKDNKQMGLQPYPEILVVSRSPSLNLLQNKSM

| Compound | RIPK2 level relative to DMSO control, mean (RIPK2 [1]; concentration 5.64503e-11 (uM)) | RIPK2 level relative to DMSO control, replicate (RIPK2 [1]; concentration 5.64503e-11 (uM)) | RIPK2 level relative to DMSO control, mean (RIPK2 [1]; concentration 1.69351e-10 (uM)) | RIPK2 level relative to DMSO control, replicate (RIPK2 [1]; concentration 1.69351e-10 (uM)) | RIPK2 level relative to DMSO control, mean (RIPK2 [1]; concentration 5.08053e-10 (uM)) | RIPK2 level relative to DMSO control, replicate (RIPK2 [1]; concentration 5.08053e-10 (uM)) | RIPK2 level relative to DMSO control, mean (RIPK2 [1]; concentration 1.52416e-9 (uM)) | RIPK2 level relative to DMSO control, replicate (RIPK2 [1]; concentration 1.52416e-9 (uM)) | RIPK2 level relative to DMSO control, mean (RIPK2 [1]; concentration 4.57247e-9 (uM)) | RIPK2 level relative to DMSO control, replicate (RIPK2 [1]; concentration 4.57247e-9 (uM)) | RIPK2 level relative to DMSO control, mean (RIPK2 [1]; concentration 1.37174e-8 (uM)) | RIPK2 level relative to DMSO control, replicate (RIPK2 [1]; concentration 1.37174e-8 (uM)) | RIPK2 level relative to DMSO control, mean (RIPK2 [1]; concentration 4.11523e-8 (uM)) | RIPK2 level relative to DMSO control, replicate (RIPK2 [1]; concentration 4.11523e-8 (uM)) | RIPK2 level relative to DMSO control, mean (RIPK2 [1]; concentration 1.23457e-7 (uM)) | RIPK2 level relative to DMSO control, replicate (RIPK2 [1]; concentration 1.23457e-7 (uM)) | RIPK2 level relative to DMSO control, mean (RIPK2 [1]; concentration 3.7037e-7 (uM)) | RIPK2 level relative to DMSO control, replicate (RIPK2 [1]; concentration 3.7037e-7 (uM)) | RIPK2 level relative to DMSO control, mean (RIPK2 [1]; concentration 1.11111e-6 (uM)) | RIPK2 level relative to DMSO control, replicate (RIPK2 [1]; concentration 1.11111e-6 (uM)) | also measured |
| --- | --- | --- | --- | --- | --- | --- | --- | --- | --- | --- | --- | --- | --- | --- | --- | --- | --- | --- | --- | --- | --- |
| CC(C)(C)S(=O)(=O)c1cc2c(Nc3ccc4scnc4c3)ccnc2cc1OCCOCCOCCOCCOCC(=O)Nc1cccc2c1CN([C@H]1CCC(=O)NC1=O)C2=O [PROTAC 3] | 146.59% | 194.68% and 98.50% | 122.55% | 71.16% and 101.63% and 194.85% | 97.79% | 93.88% and 82.74% and 116.75% | 112.46% | 101.29% and 70.25% and 165.85% | 60.56% | 92.51% and 28.00% and 61.18% | 42.80% | 81.76% and 12.71% and 33.93% | 29.73% | 51.94% and 1.28% and 35.96% | 21.93% | 35.50% and 5.30% and 24.99% | 20.89% | 34.52% and 2.06% and 26.09% | 14.85% | 24.75% and 3.56% and 16.23% | RIPK2 level relative to DMSO control, mean (RIPK2 [1]; concentration 3.33333e-6 (uM)): 15.39%; RIPK2 level relative to DMSO control, replicate (RIPK2 [1]; concentration 3.33333e-6 (uM)): 20.92% and 6.74% and 18.51%; RIPK2 level relative to DMSO control, mean (RIPK2 [1]; concentration 1e-5 (uM)): 22.12%; RIPK2 level relative to DMSO control, replicate (RIPK2 [1]; concentration 1e-5 (uM)): 28.44% and 5.50% and 32.40%; pDC50 (log half-maximal degradation concentration) of RIPK2 (RIPK2 [1]): 8.6 ± 0.4 |
| Cc1ncsc1-c1ccc(CNC(=O)[C@@H]2C[C@@H](O)CN2C(=O)[C@@H](NC(=O)COCCOCCOCCOCCOc2cc3nccc(Nc4ccc5scnc5c4)c3cc2S(=O)(=O)C(C)(C)C)C(C)(C)C)cc1 [PROTAC 1] | 137.19% | 137.14% and 131.67% and 142.75% | 152.51% | 155.57% and 149.03% and 152.92% | 122.01% | 106.27% and 143.87% and 115.89% | 89.18% | 63.87% and 96.25% and 107.40% | 27.32% | 23.09% and 35.58% and 23.29% | 9.76% | 12.67% and 5.77% and 10.83% | 6.61% | 11.20% and 7.66% and 0.96% | 5.05% | 9.24% and 2.76% and 3.15% | 6.31% | 7.12% and 6.30% and 5.51% | 33.78% | 1.60% and 12.61% and 87.13% | RIPK2 level relative to DMSO control, mean (RIPK2 [1]; concentration 3.33333e-6 (uM)): 14.14%; RIPK2 level relative to DMSO control, replicate (RIPK2 [1]; concentration 3.33333e-6 (uM)): 1.88% and 3.30% and 37.22%; RIPK2 level relative to DMSO control, mean (RIPK2 [1]; concentration 1e-5 (uM)): 11.28%; RIPK2 level relative to DMSO control, replicate (RIPK2 [1]; concentration 1e-5 (uM)): 13.04% and 4.22% and 16.59%; pDC50 (log half-maximal degradation concentration) of RIPK2 (RIPK2 [1]): 8.7 ± 0.1 |
| C[C@]12C=CC(=O)C=C1CC[C@@H]1[C@@H]2[C@@H](O)C[C@@]2(C)[C@H]1CC[C@]2(O)C(=O)CO [prednisolone, reference compound] |  |  |  |  |  |  |  |  |  |  |  |  |  |  |  |  |  |  |  |  | IL-1b (Ctrl=DMSO = 100) [2]: 18 and 20 and 82 and 15 and 48 and 13 and 5 (2×) and 35 and 37 and 12 and 6 and 49 and 17; IL-6 (Ctrl=DMSO = 100) [2]: 26 (2×) and 27 and 10 and 1 and 8 and 46 and 63 and 31 and 7 and 42 and 40 and 90 and 50 and 9; TNFa (Ctrl=DMSO = 100) [2]: 29 and 15 and 42 and 28 and 19 and 0 and 13 and 33 and 46 (2×) and 27 and 26 and 38 and 23 and 66; IL-1b (Ctrl=DMSO = 100) [3]: 65 and 41 and 10 and 46 and 7 (2×) and 49 and 30 and 14 and 33 and 36 and 5 and 17 and 39 and 19 (2×) and 13 and 34 and 28; IL-6 (Ctrl=DMSO = 100) [3]: 58 and 14 and 16 and 25 and 18 and 9 and 12 and 5 (2×) and 74 and 26 and 34 and 28 and 19 and 3 and 21 and 17 and 48 and 24; TNFa (Ctrl=DMSO = 100) [3]: 36 and 19 and 40 and 48 and 18 (2×) and 56 and 8 and 33 and 55 and 69 and 27 and 38 (2×) and 20 and 25 and 35 and 14 and 39 |
| CN[C@H](C)C(=O)N[C@@H](C(=O)N1CCC[C@@H]1c1nc(C(=O)c2ccc(F)cc2)cs1)C1CCN(C(=O)c2cnc(N3CCN(CCOc4cc5ncnc(Nc6n[nH]c(C)c6C)c5cc4S(=O)(=O)C(C)(C)C)CC3)nc2)CC1 [PROTAC 5] |  |  |  |  |  |  |  |  |  |  |  |  |  |  |  |  |  |  |  |  | RIPK2 degradation in human PBMCs, in words (RIPK2 [4]): does not degrade RIPK2; hPBMC pDC50 ± SEM, 24 h (n = 3) (RIPK2 [4]; RIPK2 degradation, 24 h): Non-degrader; hPBMC MDP pIC50 ± SEM, 6 h (n = 3) ([5]; L18-MDP-induced TNFα release, 6 h): 6.5 ± 0.5; fold reduced potency in L18-MDP-induced TNFα release versus the active PROTAC ([5]; control PROTAC vs its enantiomer): more than 10 fold; RIPK2 FP pIC50 ± SEM (n) (RIPK2 [6]): 6.7 ± 0.05 (12) |

From publication PMC7083851, “Extended pharmacodynamic responses observed upon PROTAC-mediated degradation of RIPK2” (Communications Biology, 2020)
